The results in this text go back to US8871753B2, “Macrocyclic compounds and their use as kinase inhibitors” (Incyte Corporation, priority 2008, dated 2014).

In general, pIC50 refers to −log10 of the IC50, conventionally taken in molar units.

The target of test [1] is T1, human JAK1 (a.a. 837-1142) (Homo sapiens, UniProt P23458).
T1 construct: human JAK1 (a.a. 837-1142); His tag (N); made in house; host or cells: insect cells (baculovirus)
Nature of the test: In vitro JAK kinase assay (HTRF, phosphorylation of a biotinylated peptide), JAK1. The settings on record: Table D1; read-out: JAK1 IC50. Type of test: biochemical. The procedure:
(§1) The catalytic activity of JAK1, JAK2 or JAK3 was assayed by measuring the phosphorylation of a biotinylated peptide. The phosphorylated peptide was detected by homogenous time resolved fluorescence (HTRF). […] The ATP concentration in the reactions was 90 μM for JAK1, 30 μM for JAK2 and 3 μM for JAK3. Reactions were carried out at room temperature for 1 hr and then stopped with 20 μL 45 mM EDTA, 300 nM SA-APC, 6 nM Eu-Py20 in assay buffer (Perkin Elmer, Boston, Mass.). Binding to the Europium labeled antibody took place for 40 minutes and HTRF signal was measured on a Fusion plate reader (Perkin Elmer, Boston, Mass.).
(§2) The catalytic activity of JAK1, JAK2 or JAK3 was assayed by measuring the phosphorylation of a biotinylated peptide. The phosphorylated peptide was detected by homogenous time resolved fluorescence (HTRF). […] Reactions were carried out at room temperature for 1 hr and then stopped with 20 μL 45 mM EDTA, 300 nM SA-APC, 6 nM Eu-Py20 in assay buffer (Perkin Elmer, Boston, Mass.). Binding to the Europium labeled antibody took place for 40 minutes and HTRF signal was measured on a Fusion plate reader (Perkin Elmer, Boston, Mass.).

Test [2] concerns the target T2, human JAK2 (a.a. 828-1132) (Homo sapiens, UniProt O60674).
T2 construct: JAK2 (a.a. 828-1132); His tag (N); made in house; host or cells: insect cells (baculovirus)
The experiment in a line: In vitro JAK kinase assay (HTRF, phosphorylation of a biotinylated peptide), JAK2. Type of test: biochemical. Particulars: Table D1. How it is done: as §1, §2

Molecules are shown by their SMILES. pIC50: −log10 of the molar value.

T1 sequence (P23458 849-1154): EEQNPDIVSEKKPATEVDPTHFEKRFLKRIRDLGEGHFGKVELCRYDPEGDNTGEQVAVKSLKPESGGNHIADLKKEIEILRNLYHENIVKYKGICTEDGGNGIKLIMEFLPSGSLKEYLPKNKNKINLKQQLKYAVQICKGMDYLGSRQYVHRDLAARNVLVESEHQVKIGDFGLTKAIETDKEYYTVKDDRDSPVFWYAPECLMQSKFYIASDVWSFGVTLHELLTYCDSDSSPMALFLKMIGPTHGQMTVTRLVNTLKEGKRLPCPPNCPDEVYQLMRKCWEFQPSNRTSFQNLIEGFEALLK
T2 sequence (O60674 828-1132): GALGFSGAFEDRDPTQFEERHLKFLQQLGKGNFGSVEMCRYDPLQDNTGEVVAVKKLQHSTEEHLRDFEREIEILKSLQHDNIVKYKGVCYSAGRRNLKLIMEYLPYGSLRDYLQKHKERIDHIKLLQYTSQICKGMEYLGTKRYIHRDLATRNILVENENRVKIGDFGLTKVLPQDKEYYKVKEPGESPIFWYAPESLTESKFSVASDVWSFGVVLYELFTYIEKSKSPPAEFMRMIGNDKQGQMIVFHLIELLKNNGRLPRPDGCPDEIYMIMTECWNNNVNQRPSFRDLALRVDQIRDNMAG

For the molecule `O=C(C[C@@H]1CCN(C(=O)c2nccs2)C1)Nc1ccc2cc1CCc1cncc(c1)Nc1ncc(Cl)c(n1)N2` [Example D125, N-[6-Chloro-2,4,8,18,22-pentaazatetracyclo[14.3.1.1(3,7).1(9,13)]docosa-1(20),3(22),4,6,9(21),10,12,16,18-nonaen-12-yl]-2-[(3S)-1-(1,3-thiazol-2-ylcarbonyl)pyrrolidin-3-yl]acetamide bis(trifluoroacetate)], the negative-log IC50 (pIC50) in test [1] is 7.47.

On to `N#Cc1cccc(NC(=O)N2CC[C@@H](CC(=O)Nc3ccc4cc3CCc3cncc(c3)Nc3ncc(Cl)c(n3)N4)C2)c1` [Example D115, (3S)-3-(2-{[6-Chloro-2,4,8,18,22-pentaazatetracyclo[14.3.1.1(3,7).1(9,13)]docosa-1(20),3(22),4,6,9(21),10,12,16,18-nonaen-12-yl]amino}-2-oxoethyl)-N-(3-cyanophenyl)pyrrolidine-1-carboxamide bis(trifluoroacetate)], for which the results for the pIC50 in test [2] and in test [1] were 6.79 and 7.72, respectively.

Consider `Cc1cc(C(=O)N2CCC[C@H](CC(=O)Nc3ccc4cc3CCc3cncc(c3)Nc3ncc(Cl)c(n3)N4)C2)no1` [Example D209, N-[6-Chloro-2,4,8,18,22-pentaazatetracyclo[14.3.1.1(3,7).1(9,13)]docosa-1(20),3(22),4,6,9(21),10,12,16,18-nonaen-12-yl]-2-{(3R)-1-[(5-methylisoxazol-3-yl)carbonyl]piperidin-3-yl}acetamide bis(trifluoroacetate)], for which the pIC50 in test [2] was 6.34; in test [1] it was 7.19.

As for `O=C(C[C@H]1CCN(C(=O)c2cn[nH]c2)C1)Nc1ccc2cc1CCc1cncc(c1)Nc1ncc(Cl)c(n1)N2` [Example D129-b, N-[6-Chloro-2,4,8,18,22-pentaazatetracyclo[14.3.1.1(3,7).1(9,13)]docosa-1(20),3(22),4,6,9(21),10,12,16,18-nonaen-12-yl]-2-[(3R)-1-(1H-pyrazol-4-ylcarbonyl)pyrrolidin-3-yl]acetamide bis(trifluoroacetate)], the pIC50 in test [2] was 6.22; in test [1], 7.48.

As for `O=C(C[C@@H]1CCN(C(=O)c2nc[nH]n2)C1)Nc1ccc2cc1CCc1cncc(c1)Nc1ncc(Cl)c(n1)N2` [Example D131, N-[6-Chloro-2,4,8,18,22-pentaazatetracyclo[14.3.1.1(3,7).1(9,13)]docosa-1(20),3(22),4,6,9(21),10,12,16,18-nonaen-12-yl]-2-[(3S)-1-(1H-1,2,4-triazol-3-ylcarbonyl)pyrrolidin-3-yl]acetamide bis(trifluoroacetate)], the negative logarithm of the IC50 (pIC50) is 6.90 in test [2] and 8.07 in test [1].

Turning to `CS(=O)(=O)N1CC[C@@H](CC(=O)Nc2ccc3cc2CCc2cncc(c2)Nc2ncc(Cl)c(n2)N3)C1` [Example D127, N-[6-Chloro-2,4,8,18,22-pentaazatetracyclo[14.3.1.1(3,7).1(9,13)]docosa-1(20),3(22),4,6,9(21),10,12,16,18-nonaen-12-yl]-2-[(3S)-1-(methylsulfonyl)pyrrolidin-3-yl]acetamide bis(trifluoroacetate)], the values for the pIC50 in test [2] and in test [1] were 6.70 and 7.92, respectively.

For the molecule `O=C(C[C@H]1CCCN(c2nc3cccnc3o2)C1)Nc1ccc2cc1CCc1cncc(c1)Nc1ncc(Cl)c(n1)N2` [Example D214, N-[6-Chloro-2,4,8,18,22-pentaazatetracyclo[14.3.1.1(3,7).1(9,13)]docosa-1(20),3(22),4,6,9(21),10,12,16,18-nonaen-12-yl]-2-[(3R)-1-[1,3]oxazolo[5,4-b]pyridin-2-ylpiperidin-3-yl]acetamide tris(trifluoroacetate)], the negative logarithm of the IC50 (pIC50) is under 6.00 in test [2] and 7.92 in test [1].

As to `O=C(C[C@H]1CCN(C(=O)Nc2ccc(F)cc2)C1)Nc1ccc2cc1CCc1cncc(c1)Nc1ncc(Cl)c(n1)N2` [Example D102, (3R)-3-(2-{[6-Chloro-2,4,8,18,22-pentaazatetracyclo[14.3.1.1(3,7).1(9,13)]docosa-1(20),3(22),4,6,9(21),10,12,16,18-nonaen-12-yl]amino}-2-oxoethyl)-N-(4-fluorophenyl)pyrrolidine-1-carboxamide bis(trifluoroacetate)], the pIC50 in test [2] is 7.11; in test [1], 8.60.

For the molecule `O=C(C[C@H]1CCN(C(=O)Nc2cccc(F)c2)C1)Nc1ccc2cc1CCc1cncc(c1)Nc1ncc(Cl)c(n1)N2` [Example D103, (3R)-3-(2-{[6-Chloro-2,4,8,18,22-pentaazatetracyclo[14.3.1.1(3,7).1(9,13)]docosa-1(20),3(22),4,6,9(21),10,12,16,18-nonaen-12-yl]amino}-2-oxoethyl)-N-(3-fluorophenyl)pyrrolidine-1-carboxamide bis(trifluoroacetate)], the pIC50 in test [2] was 6.95; in test [1], 8.17.

Consider `O=C(C[C@@H]1CCN(C(=O)Nc2ccc(F)cc2)C1)Nc1ccc2cc1CCc1cncc(c1)Nc1ncc(Cl)c(n1)N2` [Example D118, (3S)-3-(2-{[6-Chloro-2,4,8,18,22-pentaazatetracyclo[14.3.1.1(3,7).1(9,13)]docosa-1(20),3(22),4,6,9(21),10,12,16,18-nonaen-12-yl]amino}-2-oxoethyl)-N-(4-fluorophenyl)pyrrolidine-1-carboxamide bis(trifluoroacetate)], for which the pIC50 in test [2] is 6.63; in test [1], 7.92.

For `O=C1c2ccccc2C(=O)N1CCS(=O)(=O)Nc1ccc2cc1CCc1cncc(c1)Nc1ncc(Cl)c(n1)N2` [Example D210, N-[6-Chloro-2,4,8,18,22-pentaazatetracyclo[14.3.1.1(3,7).1(9,13)]docosa-1(20),3(22),4,6,9(21),10,12,16,18-nonaen-12-yl]-2-(1,3-dioxo-1,3-dihydro-2H-isoindol-2-yl)ethanesulfonamide bis(trifluoroacetate)], the negative logarithm of the IC50 (pIC50) in test [2] is 7.85; in test [1], 9.00.

Consider `Cc1cc(C(=O)N2CC[C@H](CC(=O)Nc3ccc4cc3CCc3cncc(c3)Nc3ncc(Cl)c(n3)N4)C2)no1` [Example D109, N-[6-Chloro-2,4,8,18,22-pentaazatetracyclo[14.3.1.1(3,7).1(9,13)]docosa-1(20),3(22),4,6,9(21),10,12,16,18-nonaen-12-yl]-2-{(3R)-1-[(5-methylisoxazol-3-yl)carbonyl]pyrrolidin-3-yl}acetamide bis(trifluoroacetate)], for which the negative-log IC50 (pIC50) in test [2] was 6.72; in test [1], 7.80.

In the case of `Cn1cncc1C(=O)N1CC[C@@H](CC(=O)Nc2ccc3cc2CCc2cncc(c2)Nc2ncc(Cl)c(n2)N3)C1` [Example D126, N-[6-Chloro-2,4,8,18,22-pentaazatetracyclo[14.3.1.1(3,7).1(9,13)]docosa-1(20),3(22),4,6,9(21),10,12,16,18-nonaen-12-yl]-2-{(3S)-1-[(1-methyl-1H-imidazol-5-yl)carbonyl]pyrrolidin-3-yl}acetamide tris(trifluoroacetate)], the pIC50 in test [1] was 7.01.

`O=C(C[C@@H]1CCCN(c2nc3cccnc3o2)C1)Nc1ccc2cc1CCc1cncc(c1)Nc1ncc(Cl)c(n1)N2` [Example D213, N-[6-Chloro-2,4,8,18,22-pentaazatetracyclo[14.3.1.1(3,7).1(9,13)]docosa-1(20),3(22),4,6,9(21),10,12,16,18-nonaen-12-yl]-2-[(3S)-1-[1,3]oxazolo[5,4-b]pyridin-2-ylpiperidin-3-yl]acetamide tris(trifluoroacetate)]: in test [1], the pIC50 was 7.96.

Consider `O=C(C[C@H]1CCN(C(=O)c2cc[nH]n2)C1)Nc1ccc2cc1CCc1cncc(c1)Nc1ncc(Cl)c(n1)N2` [Example D130, N-[6-Chloro-2,4,8,18,22-pentaazatetracyclo[14.3.1.1(3,7).1(9,13)]docosa-1(20),3(22),4,6,9(21),10,12,16,18-nonaen-12-yl]-2-[(3R)-1-(1H-pyrazol-3-ylcarbonyl)pyrrolidin-3-yl]acetamide bis(trifluoroacetate)], for which the pIC50 in test [1] was 7.64.

In the case of `Cc1cc(C(=O)N2CC[C@@H](CC(=O)Nc3ccc4cc3CCc3cncc(c3)Nc3ncc(Cl)c(n3)N4)C2)no1` [Example D124, N-[6-Chloro-2,4,8,18,22-pentaazatetracyclo[14.3.1.1(3,7).1(9,13)]docosa-1(20),3(22),4,6,9(21),10,12,16,18-nonaen-12-yl]-2-{(3S)-1-[(5-methylisoxazol-3-yl)carbonyl]pyrrolidin-3-yl}acetamide bis(trifluoroacetate)], the pIC50 in test [1] is 7.80.

For `Cc1oncc1C(=O)N1CC[C@@H](CC(=O)Nc2ccc3cc2CCc2cncc(c2)Nc2ncc(Cl)c(n2)N3)C1` [Example D123, N-[6-Chloro-2,4,8,18,22-pentaazatetracyclo[14.3.1.1(3,7).1(9,13)]docosa-1(20),3(22),4,6,9(21),10,12,16,18-nonaen-12-yl]-2-{(3S)-1-[(5-methylisoxazol-4-yl)carbonyl]pyrrolidin-3-yl}acetamide bis(trifluoroacetate)], in test [1], the pIC50 was 7.30.
